Source: US8741906B2 (priority 2011, dated 2014)
Read-outs that look alike come from different tables or passages of the source.

Key:
human CB1 receptors = molecular target: T1, human CB1 receptors (Homo sapiens, UniProt P21554); assay: functional cAMP assay, human CB1; assay type: cell-based
T1 construct: expressed in transfected cells; host or cells: CHO cells
Method: (§1) CHO cells expressing human CB1 or CB2 receptors are seeded 17-24 hours prior to the experiment 50.000 cells per well in a black 96 well plate with flat clear bottom (Corning Costar #3904) in DMEM (Invitrogen No. 31331), 1×HT supplement, with 10% fetal calf serum and incubated at 5% CO2 and 37° C. in a humidified incubator. The growth medium was exchanged with Krebs Ringer Bicarbonate buffer with 1 mM IBMX and incubated at 30° C. for 30 min. Compounds were added to a final assay volume of 100 μl and incubated for 30 min at 30° C. Using the cAMP-Nano-TRF detection kit the assay (Roche Diagnostics) was stopped by the addition of 50 μl lysis reagent (Tris, NaCl, 1.5% Triton X100, 2.5% NP40, 10% NaN3) and 50 μl detection solutions (20 μM mAb Alexa700-cAMP 1:1, and 48 μM Ruthenium-2-AHA-cAMP) and shaken for 2 h at room temperature. The time-resolved energy transfer is measured by a TRF reader (Evotec Technologies GmbH), equipped with a ND:YAG laser as excitation source. The plate is measured twice with the excitation at 355 nm and at the emission with a delay of 100 ns and a gate of 100 ns, total exposure time 10 s at 730 (bandwidth 30 nm) or 645 nm (bandwidth 75 nm), respectively. The FRET signal is calculated as follows: FRET=T730-Alexa730-P(T645-B645) with P=Ru730-B730/Ru645-B645, where T730 is the test well measured at 730 nM, T645 is the test well measured at 645 nm, B730 and B645 are the buffer controls at 730 nm and 645 nm, respectively. cAMP content is determined from the function of a standard curve spanning from 10 μM to 0.13 nM cAMP.
(§2) EC50 values were determined using Activity Base analysis (ID Business Solution, Limited). The EC50 values for a wide range of cannabinoid agonists generated from this assay were in agreement with the values published in the scientific literature.

human CB2 receptors = molecular target: T2, human CB2 receptors (Homo sapiens, UniProt P34972); assay: functional cAMP assay, human CB2; assay type: cell-based
T2 construct: expressed in transfected cells; host or cells: CHO cells
T2 sequence (P34972 whole entry): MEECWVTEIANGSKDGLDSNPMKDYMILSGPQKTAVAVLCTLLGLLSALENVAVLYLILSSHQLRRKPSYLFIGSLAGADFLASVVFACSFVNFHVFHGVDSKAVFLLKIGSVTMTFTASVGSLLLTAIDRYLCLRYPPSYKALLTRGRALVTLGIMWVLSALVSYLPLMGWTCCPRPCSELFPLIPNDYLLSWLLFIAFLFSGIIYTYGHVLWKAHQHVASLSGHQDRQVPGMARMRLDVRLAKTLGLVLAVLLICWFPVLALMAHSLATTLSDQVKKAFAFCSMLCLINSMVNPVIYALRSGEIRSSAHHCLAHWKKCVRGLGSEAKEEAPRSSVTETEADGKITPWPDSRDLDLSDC
Method: as §1, §2

[1] = CHO cells expressing human CB1, cAMP, read-out: human CB1 EC50
[2] = CHO cells expressing human CB2, cAMP, read-out: human CB2 EC50

T1 sequence (P21554 whole entry): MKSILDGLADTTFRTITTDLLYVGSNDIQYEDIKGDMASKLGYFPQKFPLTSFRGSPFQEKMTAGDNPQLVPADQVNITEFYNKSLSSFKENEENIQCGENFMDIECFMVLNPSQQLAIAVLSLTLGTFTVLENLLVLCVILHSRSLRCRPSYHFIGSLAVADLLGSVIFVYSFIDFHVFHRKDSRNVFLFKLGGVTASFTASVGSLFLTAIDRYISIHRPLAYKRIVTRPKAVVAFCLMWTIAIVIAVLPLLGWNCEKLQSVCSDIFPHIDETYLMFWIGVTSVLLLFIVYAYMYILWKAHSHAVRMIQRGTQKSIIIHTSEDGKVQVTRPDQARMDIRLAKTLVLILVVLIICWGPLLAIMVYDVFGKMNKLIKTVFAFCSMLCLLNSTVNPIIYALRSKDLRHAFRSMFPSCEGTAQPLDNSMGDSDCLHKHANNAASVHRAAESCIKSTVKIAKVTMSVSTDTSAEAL

Row | Structure (SMILES) | EC50 (human CB1 receptors; [1]) [nM] | EC50 (human CB2 receptors; [2]) [nM] | EC50 (human CB1 receptors) [nM] | EC50 (human CB2 receptors) [nM]
1 | CC(C)(C)c1nc(N2CCCOCC2)c2nnn(Cc3ccccc3Cl)c2n1 [Example 22, 5-tert-Butyl-3-(2-chloro-benzyl)-7-[1,4]oxazepan-4-yl-3H-[1,2,3]triazolo[4,5-d]pyrimidine] | 1500 | 2.4 | – | –
2 | CC1(C)CN(c2nc(C(C)(C)C)nc3c2nnn3Cc2ccccc2Cl)CCO1 [Example 23, 5-tert-Butyl-3-(2-chloro-benzyl)-7-(2,2-dimethyl-morpholin-4-yl)-3H-[1,2,3]triazolo[4,5-d]pyrimidine] | > 10000 | 75.4 | – | –
3 | CC(C)(C)c1nc(N2CCOCC2(C)C)c2nnn(Cc3ccccc3Cl)c2n1 [Example 24, 5-tert-Butyl-3-(2-chloro-benzyl)-7-(3,3-dimethyl-morpholin-4-yl)-3H-[1,2,3]triazolo[4,5-d]pyrimidine] | 476 | 3 | – | –
4 | C[C@@H]1CC[C@@H](C)N1c1nc(C(C)(C)C)nc2c1nnn2Cc1ccccc1Cl [Example 25, 5-tert-Butyl-3-(2-chloro-benzyl)-7-((2R,5R)-2,5-dimethyl-pyrrolidin-1-yl)-3H-[1,2,3]triazolo[4,5-d]pyrimidine] | 919 | 31 | – | –
5 | CC(C)(C)c1nc(N2CC[C@H](O)C2)c2nnn(Cc3ccccc3Cl)c2n1 [Example 26, (S)-1-[5-tert-Butyl-3-(2-chloro-benzyl)-3H-[1,2,3]triazolo[4,5-d]pyrimidin-7-yl]-pyrrolidin-3-ol] | 866 | 1.1 | – | –
6 | CC(C)(C)c1nc(N2CC[C@@H](O)C2)c2nnn(Cc3ccccc3Cl)c2n1 [Example 27, (R)-1-[5-tert-Butyl-3-(2-chloro-benzyl)-3H-[1,2,3]triazolo[4,5-d]pyrimidin-7-yl]-pyrrolidin-3-ol] | > 10000 | 5.1 | – | –
7 | COC1CCN(c2nc(C(C)(C)C)nc3c2nnn3Cc2ccccc2Cl)C1 (stereo not shown) [Example 28, 5-tert-Butyl-3-(2-chloro-benzyl)-7-(3-methoxy-pyrrolidin-1-yl)-3H-[1,2,3]triazolo[4,5-d]pyrimidine] | > 10000 | 11.2 | – | –
8 | CC(C)(C)c1nc(N2CCCC2(C)C)c2nnn(Cc3ccccc3Cl)c2n1 [Example 29, 5-tert-Butyl-3-(2-chloro-benzyl)-7-(2,2-dimethyl-pyrrolidin-1-yl)-3H-[1,2,3]triazolo[4,5-d]pyrimidine] | 1630 | 12.5 | – | –
9 | CC1CCCN1c1nc(C(C)(C)C)nc2c1nnn2Cc1ccccc1Cl (stereo not shown) [Example 30, 5-tert-Butyl-3-(2-chloro-benzyl)-7-(2-methyl-pyrrolidin-1-yl)-3H-[1,2,3]triazolo[4,5-d]pyrimidine] | > 10000 | 26.9 | – | –
10 | CC(C)(C)c1nc(N2CCC3(COC3)C2)c2nnn(Cc3ccccc3Cl)c2n1 [Example 31, 5-tert-Butyl-3-(2-chloro-benzyl)-7-(2-oxa-6-aza-spiro[3.4]oct-6-yl)-3H-[1,2,3]triazolo[4,5-d]pyrimidine] | 1260 | 9.8 | – | –
11 | CC(C)(C)c1nc(N2CCC(O)CC2)c2nnn(Cc3ccccc3Cl)c2n1 [Example 32, 1-[5-tert-Butyl-3-(2-chloro-benzyl)-3H-[1,2,3]triazolo[4,5-d]pyrimidin-7-yl]-piperidin-4-ol] | > 10000 | 20.7 | – | –
12 | CC(C)(C)c1nc(N2CCC[C@H](O)C2)c2nnn(Cc3ccccc3Cl)c2n1 [Example 33, (S)-1-[5-tert-Butyl-3-(2-chloro-benzyl)-3H-[1,2,3]triazolo[4,5-d]pyrimidin-7-yl]-piperidin-3-ol] | 764 | 2.5 | – | –
13 | CC(C)(C)c1nc(N2CCC[C@@H](O)C2)c2nnn(Cc3ccccc3Cl)c2n1 [Example 34, (R)-1-[5-tert-Butyl-3-(2-chloro-benzyl)-3H-[1,2,3]triazolo[4,5-d]pyrimidin-7-yl]-piperidin-3-ol] | 2270 | 27.5 | – | –
14 | CC(C)(C)c1nc(N2CCC23COC3)c2nnn(Cc3ccccc3Cl)c2n1 [Example 35, 5-tert-Butyl-3-(2-chloro-benzyl)-7-(6-oxa-1-aza-spiro[3.3]hept-1-yl)-3H-[1,2,3]triazolo[4,5-d]pyrimidine] | > 10000 | 3.6 | – | –
15 | CC(C)(C)c1nc(N2CC[C@H](F)C2)c2nnn(Cc3ccccc3Cl)c2n1 [Example 36, 5-tert-Butyl-3-(2-chloro-benzyl)-7-((S)-3-fluoro-pyrrolidin-1-yl)-3H-[1,2,3]triazolo[4,5-d]pyrimidine] | 432 | 0.6 | – | –
16 | CC(C)(C)c1nc(N2CCC[C@@H]2CO)c2nnn(Cc3ccccc3Cl)c2n1 [Example 37, {(R)-1-[5-tert-Butyl-3-(2-chloro-benzyl)-3H-[1,2,3]triazolo[4,5-d]pyrimidin-7-yl]-pyrrolidin-2-yl}-methanol] | 492 | 0.3 | – | –
17 | CC(C)(C)c1nc(N2CCC[C@H]2CO)c2nnn(Cc3ccccc3Cl)c2n1 [Example 38, {(S)-1-[5-tert-Butyl-3-(2-chloro-benzyl)-3H-[1,2,3]triazolo[4,5-d]pyrimidin-7-yl]-pyrrolidin-2-yl}-methanol] | 361 | 18.2 | – | –
18 | CC(C)(C)c1nc(N2CCCCO2)c2nnn(Cc3ccccc3Cl)c2n1 [Example 39, 5-tert-Butyl-3-(2-chloro-benzyl)-7-[1,2]oxazinan-2-yl-3H-[1,2,3]triazolo[4,5-d]pyrimidine] | 1330 | 7.9 | – | –
19 | CC(C)(C)c1nc(N2CCCO2)c2nnn(Cc3ccccc3Cl)c2n1 [Example 40, 5-tert-Butyl-3-(2-chloro-benzyl)-7-isoxazolidin-2-yl-3H-[1,2,3]triazolo[4,5-d]pyrimidine] | > 10000 | 11.6 | – | –
20 | CC(C)(C)c1nc(N2CC2)c2nnn(Cc3ccccc3Cl)c2n1 [Example 41, 7-Aziridin-1-yl-5-tert-butyl-3-(2-chloro-benzyl)-3H-[1,2,3]triazolo[4,5-d]pyrimidine] | – | – | 1220 | 36.5
21 | CC(C)(C)c1nc(N2CC[C@@H](F)C2)c2nnn(Cc3ccccc3Cl)c2n1 [Example 42, 5-tert-Butyl-3-(2-chloro-benzyl)-7-((R)-3-fluoro-pyrrolidin-1-yl)-3H-[1,2,3]triazolo[4,5-d]pyrimidine] | 991 | 0.3 | – | –
22 | CC(C)(C)c1nc(N2CC(F)(F)C(F)(F)C2)c2nnn(Cc3ccccc3Cl)c2n1 [Example 43, 5-tert-Butyl-3-(2-chloro-benzyl)-7-(3,3,4,4-tetrafluoro-pyrrolidin-1-yl)-3H-[1,2,3]triazolo[4,5-d]pyrimidine] | 626 | 1.2 | – | –
23 | COC[C@H]1CCCN1c1nc(C(C)(C)C)nc2c1nnn2Cc1ccccc1Cl [Example 44, 5-tert-Butyl-3-(2-chloro-benzyl)-7-((R)-2-methoxymethyl-pyrrolidin-1-yl)-3H-[1,2,3]triazolo[4,5-d]pyrimidine] | > 10000 | 1 | – | –
24 | COC[C@@H]1CCCN1c1nc(C(C)(C)C)nc2c1nnn2Cc1ccccc1Cl [Example 45, 5-tert-Butyl-3-(2-chloro-benzyl)-7-((S)-2-methoxymethyl-pyrrolidin-1-yl)-3H-[1,2,3]triazolo[4,5-d]pyrimidine] | > 10000 | 52.2 | – | –
25 | CC(C)(C)c1nc(N2C[C@@H](F)C[C@H]2C#N)c2nnn(Cc3ccccc3Cl)c2n1 [Example 46, (2S,4S)-1-[5-tert-Butyl-3-(2-chloro-benzyl)-3H-[1,2,3]triazolo[4,5-d]pyrimidin-7-yl]-4-fluoro-pyrrolidine-2-carbonitrile] | 2310 | 4.4 | – | –
26 | CC(C)(C)c1nc(N2CCCS2(=O)=O)c2nnn(Cc3ccccc3Cl)c2n1 [Example 47, 5-tert-Butyl-3-(2-chloro-benzyl)-7-(1,1-dioxo-1λ6-isothiazolidin-2-yl)-3H-[1,2,3]triazolo[4,5-d]pyrimidine] | > 10000 | 20.2 | – | –
27 | CC(C)(C)c1nc(N2CCOCC2CO)c2nnn(Cc3ccccc3Cl)c2n1 (stereo not shown) [Example 48, {4-[5-tert-Butyl-3-(2-chloro-benzyl)-3H-[1,2,3]triazolo[4,5-d]pyrimidin-7-yl]-morpholin-3-yl}-methanol] | > 10000 | 8.3 | – | –
28 | CC(C)(C)c1nc(N2CCC[C@@H]2C#N)c2nnn(Cc3ccccc3Cl)c2n1 [Example 49, (R)-1-[5-tert-Butyl-3-(2-chloro-benzyl)-3H-[1,2,3]triazolo[4,5-d]pyrimidin-7-yl]-pyrrolidine-2-carbonitrile] | 155 | 1.1 | – | –
29 | CC(C)(C)c1nc(N2CCC[C@H]2C#N)c2nnn(Cc3ccccc3Cl)c2n1 [Example 50, (S)-1-[5-tert-Butyl-3-(2-chloro-benzyl)-3H-[1,2,3]triazolo[4,5-d]pyrimidin-7-yl]-pyrrolidine-2-carbonitrile] | 139 | 1 | – | –
